The record followed here is PMC12045974, “T cell toxicity induced by tigecycline binding to the mitochondrial ribosome” (Nature Communications, 2025).

Values joined by “and” are separate entries in the source; they are usually repeats but may differ in a detail not shown here. Equal values may be shown once.

In one test the test system is Hek293 cells. Briefly: Cell viability assay (CCK-8), Hek293 cells. The following applies: in % (unit assumed). The format is cell-based, human. The procedure: (§1) Cells were seeded in 96-well plates ranging from 2000 to 15,000 cells per well depending on different cell lines and treated with antibiotics in serial dilutions for 72 h (120 h for the preliminary assays) in a humidified incubator (37 °C, 5% CO2) in 100 μl medium (DMEM with 10% FBS, 2.05 mM L-glutamine (Sigma) for Hek293 and Hela; RPMI-1640 with 10% FBS, 2.05 mM L-glutamine (Sigma), and 55 μM 2-ME (Gibco) for Jurkat T cells and PBMCs). Based on preliminary tests, the number of cells per well was optimized to 2000 for Hela and Hek293, 6000 for Jurkat T cells, and 15,000 for PBMCs. The stocks of antibiotics were prepared by dissolving in DMSO. As control, the same amount of DMSO was added to the non-treated groups. Serial drug dilutions were prepared in the corresponding medium to provide a total of 9 concentrations up to 300 μM for tetracyclines and up to 900 μM for additional bacterial protein synthesis inhibitors. After drug treatment, 10% CCK-8 (Cell Counting Kit-8, Sigma Aldrich) (10 μl per well) of the total volume was added to the cells and incubated for 1–4 h depending on cell lines (1 h for Hela and Hek293; 3 h for Jurkat T cells; 4 h for PBMCs) before the evaluation of the effect of antibiotics on cell viability. […] Results were visually confirmed under the light microscope. Each treatment was performed in technical repeats. Dose-response curves were plotted, mean ± SEM was shown, and half maximal inhibitory concentration (IC50) values were calculated in GraphPad Prism.

The next test has as its system HeLa cells. Briefly: Cell viability assay (CCK-8), HeLa cells. The format is cell-based. The following applies: Hela, in % (unit assumed). As to the method: as §1
Another test deals with Jurkat T cells. Briefly: Cell viability assay (CCK-8), Jurkat T cells. The format is cell-based, human. Conditions: Jurkat, in % (unit assumed). The procedure:
as §1

The test system of another test is PBMCs. Briefly: Cell viability assay (CCK-8), PBMCs. The following applies: Homo sapiens, PBMC, 72 h, PBMCs, Fig. 1A, read-out: cell vialibity normalized to Vehicle (DMSO). Format: cell-based, human. As to the method: as §1, with “Buffy coats were ordered from anonymous blood donors at […]. […] Cells” for “Cells”, “1-4” for “1–4”
Where [1] appears, read: 72 h, dose 0.0457247 μM, Fig. 1A.
[2] abbreviates: 72 h, dose 0.411523 μM, Fig. 1A.

On to `CN(C)c1cc(NC(=O)CNC(C)(C)C)c(O)c2c1C[C@H]1C[C@H]3[C@H](N(C)C)C(O)=C(C(N)=O)C(=O)[C@@]3(O)C(O)=C1C2=O` [TIGE], for which the “cell vialibity normalized to Vehicle (DMSO)” value (from here on “cell vialibity normalized”) is 102.411 and 106.702 in the test on Hek293 cells (HEK293, dose 0.137174 μM); 106.064 and 102.447 with Hek293 cells (HEK293, dose 0.411523 μM); 90.2128 and 81.4539 in the test with Hek293 cells (HEK293, dose 1.23457 μM); 38.3156 and 41.7553 in the test with Hek293 cells (HEK293, dose 11.1111 μM); 48.1383 and 50.0177 in the test on Hek293 cells (HEK293, dose 33.3333 μM); 40.2704 and 46.6888 in the test on Hek293 cells (HEK293, dose 100 μM). The “cell vialibity normalized” value was 31.6312 and 31.5248 in the test on Hek293 cells (HEK293, dose 300 μM); 7.2695 and 4.539 in the test with Hek293 cells (HEK293, dose 900 μM); 99.0957 and 99.8329 with HeLa cells (dose 0.137174 μM); 99.7643 and 100.836 in the test on HeLa cells (dose 0.411523 μM); 95.2089 and 96.0446 in the test with HeLa cells (dose 1.23457 μM); 96.0724 and 96.0446 in the test with HeLa cells (dose 3.7037 μM). The “cell vialibity normalized” value is 92.3538 and 93.0501 in the test with HeLa cells (dose 11.1111 μM); 92.3816 and 88.3426 in the test with HeLa cells (dose 33.3333 μM); 85.5606 and 88.2068 with HeLa cells (dose 100 μM); 79.8329 and 79.3036 in the test on HeLa cells (dose 300 μM); 37.2702 and 29.1086 in the test with HeLa cells (dose 900 μM); 84.3137 and 94.7712 with Jurkat T cells (dose 0.137174 μM). Further, the “cell vialibity normalized” value with Jurkat T cells (dose 0.411523 μM) was 86.6013 and 87.2549; in the test with Jurkat T cells (dose 1.23457 μM) it was 80.8824 and 75.3268; in the test on Jurkat T cells (dose 3.7037 μM) it was 47.0588 and 43.6275; in the test with Jurkat T cells (dose 11.1111 μM) it was 16.7484 and 17.0752; with Jurkat T cells (dose 33.3333 μM) it was 6.618 and 5.964.

As to `CN(C)[C@@H]1C(O)=C(C(N)=O)C(=O)[C@@]2(O)C(O)=C3C(=O)c4c(O)cccc4[C@@](C)(O)[C@H]3C[C@@H]12` [Tetracycline, tetracycline], the viability at 0.0457247 µM with PBMCs came out at 96%. In the test on PBMCs, the viability at 100 µM turned out to be 42.5%. The viability at 300 µM with PBMCs (dose 300 μM) came to 28.2%. For the same molecule, the “cell vialibity normalized” value in the test with Jurkat T cells (setting [1]) was 102.181 and 108.663 and 114.096; with Jurkat T cells (72 h, dose 0.137174 μM, Fig. 1A), 99.1611 and 103.998 and 102.471; in the test with Jurkat T cells (setting [2]), 100 and 102.207 and 96; with Jurkat T cells (72 h, dose 1.23457 μM, Fig. 1A), 99.3708 and 109.246 and 98.7059; in the test with Jurkat T cells (72 h, dose 3.7037 μM, Fig. 1A) it was 100.377 and 106.955 and 130.118; with Jurkat T cells (72 h, dose 11.1111 μM, Fig. 1A) it was 115.478 and 121.824 and 122.353. The “cell vialibity normalized” value in the test on Jurkat T cells (72 h, dose 100 μM, Fig. 1A) was 13.3809 and 13.536 and 12.3529.

For the molecule `CN(C)c1ccc(O)c2c1C[C@H]1C[C@H]3[C@H](N(C)C)C(O)=C(C(N)=O)C(=O)[C@@]3(O)C(O)=C1C2=O` [Minocycline, minocycline], the viability at 0.0457247 µM with PBMCs turned out to be 97.4%. Also, the viability at 0.137174 µM in the test with PBMCs (dose 0.137174 μM) was 98.5%. In addition, the viability at 0.411523 µM in the test on PBMCs (dose 0.411523 μM) was found to be 100%. In the test with PBMCs (dose 1.23457 μM), the viability at 1.23457 µM stood at 95.2%. The viability at 3.7037 µM with PBMCs (dose 3.7037 μM) came out at 91.6%. In addition, the viability at 11.1111 µM with PBMCs (dose 11.1111 μM) came out at 87.6%. For the same molecule, the viability at 33.3333 µM in the test on PBMCs (dose 33.3333 μM) is 81.2%. For the same molecule, the viability at 100 µM in the test with PBMCs came to 46.6%. Also, the “cell vialibity normalized” value in the test on Jurkat T cells (setting [1]) was 100.385 and 100.531 and 101.165; with Jurkat T cells (setting [2]), 98.2906 and 97.4244 and 90.1654; in the test on Jurkat T cells (72 h, dose 1.23457 μM, Fig. 1A), 99.8718 and 96.2387 and 90.2372; in the test on Jurkat T cells (72 h, dose 3.7037 μM, Fig. 1A), 105.513 and 101.758 and 90.3163; in the test on Jurkat T cells (72 h, dose 11.1111 μM, Fig. 1A), 49.6581 and 44.3173 and 49.0295; with Jurkat T cells (72 h, dose 33.3333 μM, Fig. 1A), 19.6154 and 18.6836 and 25.6578. Besides, the “cell vialibity normalized” value in the test on Jurkat T cells (72 h, dose 100 μM, Fig. 1A) is 12.3932 and 10.5887 and 15.9454; in the test on Jurkat T cells (72 h, dose 300 μM, Fig. 1A) it was 6.111 and 6.95 and 5.018.
